According to US10588972B2, “Phthalocyanine probes and uses thereof” (LI-COR, INC., priority 2014, dated 2020):

Tests used:
Format in all cases: cell-based
A431 cells = experiment: VB-48 assay: vitality, viability and necrosis of treatments 1-10 (Table 3)
Procedure: Briefly, A431 cells were labeled with respective probes for specific treatments (listed below); cells were rinsed and evaluated for labeling. The test include the following treatments: […], treatments 3-4 of EGF-IRDye® 700DX at 0.5 μM and radiation, treatments 5-6 of IRDye® 700DX NHSe at 5 μM and radiation, treatments 7-8 of panitumumab-IRDye® 700DX at about 0.1 μM and radiation, treatment 9 of a negative control with no probe and no irradiation, and treatment 10 of RGD-IRDye® 700DX and no irradiation. The probes were incubated for about 10 minutes and with a longer period of about 20 minutes for the RGD probe. The cells were monitored with microscopy and morphology was examination 24 hours post treatment.
Low binding was expected for the RGD probe due to the low level of integrin receptors on A431 cells. […] By 3 hours post-irradiation all treatments except RGD (Treatment 1) show significant cytotoxicity. Vitality, viability and necrosis assays such as a VB-48 assay and JC-1 assay were performed.

HTB-186 cells [1] = experiment: Viability, cell number and microscopy morphology at 20 h post irradiation (Example 10)
Procedure: This example illustrates the ability of IRDye® 700DX small molecule conjugates to induce apoptosis in cells, e.g., cancer cells. In this study HTB-186 cells (a desmoplastic cerebellar medulloblastoma cell line) were treated with IRDye® 700DX small molecule conjugates (IRDye® 700DX labeled chlorotoxin, anti-EGFR Affibody®, RGD peptide and EGF ligand). Apoptosis was measured by evaluating caspase 3/7 activity and mitochondrial membrane potential. Apoptosis can be characterized by a variety of cell morphological and biochemical changes including membrane blebbing, cell shrinkage, alteration of membrane asymmetry and permeability, and/or condensation of chromatin and nucleus (Coleman et al., Nat Cell Biol, 2001, 3(4):339-45, Bortner and Cidlowski, Biochem Pharmacol, 1998, 56(12):1549-59; van Engeland et al., Experimental Cell Research, 1997, 235:421-430).
Microscopy images of cells in petri-dishes were captured at 20 h post irradiation. The images were captured in DIC and 700 nm to visualize the probe, and composite images were generated (DIC+700 nm) to visualize the overlay.
(§1) To determine whether the treated cells are undergoing apoptosis, a caspase 3/7 assay and mitochondrial potential assay were performed. […] Table 8 below provides cells number, % viability, JC-1% shift, and % late apoptotic and dead cells as determined by caspase 3/7 assay.

HTB-186 cells [2] = experiment: Caspase 3/7 assay (Example 10, Table 8); details: 32 J/cm^2, probe about 5 hours, 20 hours post irradiation; 700DX-RGD and 700DX-EGF 500 nM
Procedure: (§2) This example illustrates the ability of IRDye® 700DX small molecule conjugates to induce apoptosis in cells, e.g., cancer cells. In this study HTB-186 cells (a desmoplastic cerebellar medulloblastoma cell line) were treated with IRDye® 700DX small molecule conjugates (IRDye® 700DX labeled chlorotoxin, anti-EGFR Affibody®, RGD peptide and EGF ligand). Apoptosis was measured by evaluating caspase 3/7 activity and mitochondrial membrane potential. […]
The caspase 3/7 assay was used to measure caspase 3/7 activity in the cells from the treatments listed above. […] Upon activation, the caspases cleave the substrate, and in turn, a fluorescence signal is emitted. […] The fluorescence can be detected by, for example, flow cytometry, fluorescence microscopy, and fluorescence-based image cytometry.
as §1

HTB-186 cells [3] = experiment: JC-1 mitochondrial membrane potential assay (Example 10, Table 8); details: 32 J/cm^2, probe about 5 hours, 20 hours post irradiation; 700DX-RGD and 700DX-EGF 500 nM
Procedure: as §2
In this study a mitochondrial membrane potential assay was performed on cells from treatments 1-8 to determine whether the treated cells underwent apoptosis. […] As JC-1 dye accumulated in mitochondria, its fluorescence emission shifts from green (about 529 nm) to red (about 590 nm). The presence of red fluorescence due to JC-1 aggregate formation corresponds to regions of high mitochondrial polarization. Depolarized mitochondria are indicated by green fluorescence of the JC-1 monomers. A detectable decrease in the red/green fluorescence intensity ratio indicates mitochondrial depolarization, and thus, apoptosis. In a membrane potential assay, cells are incubated with the JC-1 dye and fluorescence is detected by, for example, flow cytometry, fluorescence microscopy, and fluorescence-based image cytometry. […]

[4] = irradiated (I) 32 J/cm^2, RGD 0.5 μM, EGF 0.5 μM, NHSe 5 μM, Pan ~0.1 μM
[5] = no irradiation (NI), RGD-700DX 0.5 μM

## C[Si](C)(CCC[N+](CCCS(=O)(=O)O)(CCCS(=O)(=O)O)CCCS(=O)(=O)O)O[Si-2]123(O[Si](C)(C)CCC[N+](CCCS(=O)(=O)O)(CCCS(=O)(=O)O)CCCS(=O)(=O)O)n4c5c6ccccc6c4N=C4c6cccc(OCCCOC(=O)NCCCCCC(=O)NCCCC[C@@H]7NC(=O)[C@@H](Cc8ccccc8)NC(=O)[C@H](CC(=O)O)NC(=O)CNC(=O)[C@H](CCCNC(=N)N)NC7=O)c6C(=[N+]41)N=c1c4ccccc4c(n12)=NC1=[N+]3C(=N5)c2ccccc21 [RGD-700DX]
A431 cells; [4]
  % Healthy: 91.6%
  % Necrotic: 7%
  Cells/mL: 6.6 × 10^5 Cells/mL
  Low % Vitality: 2%
A431 cells; [5]
  % Healthy: 90.8%
  % Necrotic: 5%
  Cells/mL: 5.8 × 10^5 Cells/mL
  Low % Vitality: 4%
HTB-186 cells [1]; 32 J/cm^2, 20 h post irradiation
  cell morphology: appeared rounded and smaller
HTB-186 cells [1]; 32 J/cm^2, probe about 5 hours, 20 hours post irradiation, 700DX-RGD and 700DX-EGF 500 nM
  Cell #: 0.6E6
HTB-186 cells [2]
  Caspase 3 % late apoptotic + dead cells: 57%
HTB-186 cells [3]
  JC-1 % shift: 44%
